The target in series [1] is T1, human recombinant histamine H2 receptor (Homo sapiens, UniProt P25021).
T1 construct: expressed in transfected cells; host or cells: CHO-K1 cells
As to the kind of experiment: Histamine H2 radioligand binding ([125I]Aminopotentidine). Particulars: 0.3 μM compound; 0.1 nM [125I]Aminopotentidine; read-out: Histamine Binding H2, percent inhibition of specific binding. As to the method: Non-specific binding was estimated in the presence of 3 μM Tiotidine. […] Biochemical assay results are presented as the percent inhibition of specific binding in Table 5.
Non-specific binding was estimated in the presence of 3 μM Tiotidine. […] Compounds were screened at 1 μM, using 1% DMSO as vehicle. Biochemical assay results are presented as the percent inhibition of specific binding in Table 6.

Series [2] deals with adrenergic receptors α1D, α2A, α2B; serotonin receptor 5-HT6; dopamine receptor D2L. The series is described as follows: Classification of compounds (Type 1-4) from receptor binding and neurite outgrowth. The source says:
Compounds of the invention that inhibit binding of a ligand to adrenergic receptors α1D, α2A, α2B and serotonin receptor 5-HT6 by at least about 80% as determined in a suitable assay such as the assays described herein can be classified as Type 1 compounds. […] In one variation, binding of a ligand to serotonin receptor 5-HT7 is at least about 80%. […] Weak inhibition of binding of a ligand to the histamine H1 receptor is permitted as agonists of this receptor have been implicated in stimulating memory as well as weight gain. In one variation, binding to histamine receptor H1 is inhibited by less than about 80%. […] Compounds that inhibit binding of a ligand to the dopamine D2L receptor by at least about 80% as determined in a suitable assay such as the assay described herein can be classified as Type 2 compounds.
In one variation, Type 1 compounds further inhibit binding of a ligand to dopamine receptor D2L by less than about 80% as determined in a suitable assay known in the art such as the assay described herein. […] In one variation, binding of a ligand to serotonin receptor 5-HT7, 5-HT2A and/or 5-HT2C is inhibited by at least about 80% as determined in a suitable assay such as the assays described herein. […] In one variation, binding of a ligand to histamine receptor H1 and/or H2 is inhibited by less than about 80% as determined by a suitable assay known in the art such as the assays described herein.
In one variation, biding to serotonin receptor 5-HT2A is inhibited by at least about 80% as determined in a suitable assay know in the art such as the assay described herein.

The target in series [3] is T2, human recombinant histamine H1 receptor (Homo sapiens, UniProt P35367).
T2 construct: expressed in transfected cells; host or cells: CHO cells
T2 sequence (P35367 whole entry): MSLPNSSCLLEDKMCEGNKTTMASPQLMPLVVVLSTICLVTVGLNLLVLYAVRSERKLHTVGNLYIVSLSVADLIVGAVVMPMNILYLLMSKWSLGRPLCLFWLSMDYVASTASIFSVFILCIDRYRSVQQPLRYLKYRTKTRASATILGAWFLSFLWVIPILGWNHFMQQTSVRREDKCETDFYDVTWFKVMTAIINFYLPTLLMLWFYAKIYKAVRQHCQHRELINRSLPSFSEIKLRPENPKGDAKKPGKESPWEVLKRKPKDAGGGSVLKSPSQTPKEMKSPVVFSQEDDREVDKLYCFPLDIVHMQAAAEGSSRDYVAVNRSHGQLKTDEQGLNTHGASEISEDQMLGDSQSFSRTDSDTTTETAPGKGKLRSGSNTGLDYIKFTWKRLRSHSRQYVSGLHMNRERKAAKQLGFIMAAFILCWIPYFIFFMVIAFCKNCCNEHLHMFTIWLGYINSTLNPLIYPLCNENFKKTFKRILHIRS
The series is described as follows: Histamine H1 radioligand binding ([3H]Pyrilamine). Conditions: […] [3H]Pyrilamine, read-out: Histamine Binding H1, percent inhibition of specific binding. Here is the method:
To evaluate in radioligand binding assays the activity of compounds of the invention, human recombinant histamine H1 receptor expressed in Chinese hamster ovary (CHO) cells (De Backer M D et al. Biochem. Biophys. Res Comm. 197(3):1601, 1993) in a modified Tris-HCl buffer (50 mM Tris-HCl, pH 7.4, 2 mM MgCl2, 100 mM NaCl, 250 mM Sucrose) were used. […] Non-specific binding was estimated in the presence of 1 μM pyrilamine. Receptor proteins were filtered and washed, the filters were then counted to determine [^3H]pyrilamine specifically bound. […] Biochemical assay results are presented as the percent inhibition of specific binding in Table 5.
To evaluate in radioligand binding assays the activity of compounds of the invention, human recombinant histamine H1 receptor expressed in Chinese hamster ovary (CHO) cells (De Backer, M. D. et al., Biochem. Biophys. Res. Comm. 197(3):1601, 1993) in a modified Tris-HCl buffer (50 mM Tris-HCl, pH 7.4, 2 mM MgCl2, 100 mM NaCl, 250 mM Sucrose) was used. […] Non-specific binding was estimated in the presence of 1 μM pyrilamine. Receptor proteins were filtered and washed, the filters were then counted to determine [^3H]Pyrilamine specifically bound. Compounds were screened at 1 μM, using 1% DMSO as vehicle. Biochemical assay results are presented as the percent inhibition of specific binding in Table 6.

In series [4] the test system is synaptosomes of cortex of rat brain. The series is described as follows: Glutamate-induced 45Ca2+ uptake into synaptosomes. The series is classed as biochemical, Wistar rats. Conditions: for % Ca of control (control-100%), glutamate-induced 45Ca2+ uptake into synaptosomes: rat cortex synaptosomes. As to the method:
Synaptosomes were obtained from cerebral cortex of newborn (9-10 days) Wistar rats using standard Hajos method. The brain was homogenized with 10 volumes of cooled 0.32 M sucrose at 900 rpm. The homogenate was centrifuged at 1500 g for 10 min. and the resulted supernatant was centrifuged at 10000 g for 20 min. The radioactive label was accumulated by suspension of the synaptosomal P2-fraction in the incubation buffer A having the following composition: 132 mM NaCl, 5 mM KCl, 5 mM HEPES, 10 mM glucose, pH 7.4 (protein concentration of approximately 1.5-2 mg/ml). The mixture was further incubated for 5 min with 200 μM glutamate at 37° C. and then ^45Ca^2+ uptake was stopped by filtration through GF/B filters (Whatman, England) followed by three washes with cold buffer B (145 mM KCl, 10 mM Tris, 5.4 mM Trilon B, pH 7.4). The radioactivity probes were analyzed by fluid scintillation beta-analyzer (TriCarb, Perkin Elmer). All tests were performed in three parallel trials in 2-3 independent experiments. The amount of ^45Ca^2+ uptake was estimated by calculating the difference of radioactive label during the stimulation with glutamate and without the stimulation with agonist.
Specific ^45Ca^2+ uptake was estimated using the following equation: K(43/21)=[(Ca4−Ca3)/(Ca2−Ca1)]100%, where
Ca1—^45Ca^2+ uptake for the Control (without glutamate and the compound tested),
[…] glutamate-induced ^45Ca^2+ uptake (glutamate only),
Ca3—^45Ca^2+ uptake in the presence of the compound tested (without glutamate),
Ca4—^45Ca^2+ uptake in the presence of glutamate and the testing compound.
Statistical analysis of the results was performed using Student's t-test.

Series [5] relates to mice. The series is described as follows: recognition test of new location of a known object (spatial memory). Format: in vivo. Conditions: for effect of the dose on exploration time / memory (in words) / time exploring the object in a new location, % of the total time / time exploring the object in the known position, % of the total time / overall effect on memory (in words): mice; for overall effect on memory (in words): doses 0.05-1 mg/kg.

What is called inhibition is the change of the read-out against control, counted positive when it falls. Broadly, the melting point is the temperature, or range, at which the solid turns liquid.

Values joined by “and” are separate entries in the source; they are usually repeats but may differ in a detail not shown here. Equal entries are not always repeated.

T1 sequence (P25021 whole entry): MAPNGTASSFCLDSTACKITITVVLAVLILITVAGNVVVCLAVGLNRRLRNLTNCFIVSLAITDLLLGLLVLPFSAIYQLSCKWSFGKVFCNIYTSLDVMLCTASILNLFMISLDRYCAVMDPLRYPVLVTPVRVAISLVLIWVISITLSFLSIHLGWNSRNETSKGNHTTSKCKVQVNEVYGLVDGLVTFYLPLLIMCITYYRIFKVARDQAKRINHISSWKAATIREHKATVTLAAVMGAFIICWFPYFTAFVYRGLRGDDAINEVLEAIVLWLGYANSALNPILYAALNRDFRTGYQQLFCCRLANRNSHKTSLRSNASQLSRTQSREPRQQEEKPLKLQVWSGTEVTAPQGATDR

For `CCN1CCc2c(c3cc(C)ccc3n2CC(O)c2ccc(C)cc2)C1` (racemic) [Compound 29, racemic-2-(2-ethyl-1,2,3,4-tetrahydro-8-methylpyrido[4,3-b]indol-5-yl)-1-p-tolylethanol], the inhibition at 0.3 µM in series [1] came out at 27%. In addition, the “compound type (classification by receptor binding profile and neurite outgrowth)” value in series [2] was “Type one”. In addition, the inhibition at 0.03 µM in series [3] (0.03 μM compound) was found to be 37%. Moreover, the inhibition at 0.1 µM in series [3] (0.1 μM compound) is 57%.

For the compound `COc1ccc2c(c1)c1c(n2CCc2noc(-c3ccccc3)n2)CCN(C)C1` [Compound C4-5], the “concentration at which glutamate-induced 45Ca2+ uptake into synaptosomes was inhibited” value in series [4] was in the range of 1 to 25 µM. Moreover, in series [4] (10 μM (maximal inhibition)), the “inhibition of glutamate-induced 45Ca2+ uptake into synaptosomes” value came out at 40%. In addition, the “glutamate-induced 45Ca2+ uptake into synaptosomes of rat cortex, % Ca of control (control-100%)” value in series [4] (C 0.1 μM) was 136.4% and 136.4 ± 11.8%; in series [4] (C 0.5 μM), 124.6 ± 13.7%; in series [4] (C 1.0 μM), 99.8 ± 0.1%; in series [4] (C 5.0 μM), 84.2 ± 0.7%; in series [4] (C 10 μM), 59.9 ± 0.2%; in series [4] (C 25 μM) it was 98.6 ± 9.4%. Besides, the “glutamate-induced 45Ca2+ uptake into synaptosomes of rat cortex, % Ca of control (control-100%)” value in series [4] (C 50 μM) is 111.7 ± 11.2%; in series [4] (C 100 μM), 148.4% and 148.4 ± 7.3%. For the same compound, the “Influence on memory in the test recognition new localization of known object” value is “−” in series [5] (Dose of Compound 0.05 mg/kg), “−” in series [5] (Dose of Compound 0.1 mg/kg), “+” in series [5] (Dose of Compound 0.5 mg/kg) and “+” in series [5] (Dose of Compound 1.0 mg/kg). The “activity on memory: times weaker than dimebon” value in series [5] (comparison of effective doses) is recorded as “approximately 10 times”. For the same compound, the “effect of the dose on exploration time / memory (in words)” value in series [5] (dose 0.05 mg/kg) and in series [5] (dose 0.1 mg/kg) was “not effective” each time. In addition, the entries for the “time exploring the object in a new location, % of the total time” value in series [5] (dose 0.5 mg/kg) and in series [5] (dose 1 mg/kg) were 56.2±7.6% and 60.6±8.4%, respectively. The “time exploring the object in the known position, % of the total time” value in series [5] (dose 0.5 mg/kg) stood at 43.8±7.6%; in series [5] (dose 1 mg/kg) it was 39.4±8.4%. Also, the “overall effect on memory (in words)” value in series [5] is on record as “stimulated memory”.

For `CN1CCc2c(c3cc(F)ccc3n2CCc2noc(-c3ccccc3)n2)C1` [Compound C4-7], in series [4], the “concentration at which glutamate-induced 45Ca2+ uptake into synaptosomes was not affected” value is 0.1 to 10 µM. For the same compound, in series [4] (50-100 μM), the “glutamate-induced 45Ca2+ uptake into synaptosomes of rat cortex, % of control” value was about 128%. The “% Ca of control (control-100%), glutamate-induced 45Ca2+ uptake into synaptosomes” value in series [4] (compound 0.1 μM) came to 97.2 ± 5.5%; in series [4] (compound 0.5 μM) it was 87.6 ± 3.9%; in series [4] (compound 1 μM), 105.3 ± 2.8%; in series [4] (compound 5 μM) it was 109.2 ± 10%; in series [4] (compound 10 μM), 101.6 ± 7.8%; in series [4] (compound 50 μM), 128.3 ± 8.1%. In series [4] (compound 100 μM), the “% Ca of control (control-100%), glutamate-induced 45Ca2+ uptake into synaptosomes” value turned out to be 123.6 ± 4.9%. Further, the “Influence on memory in the test recognition new localization of known object” value in series [5] (Dose of Compound 0.05 mg/kg) is recorded as “−”; in series [5] (Dose of Compound 0.1 mg/kg), “+”; in series [5] (Dose of Compound 0.5 mg/kg), “−”; in series [5] (Dose of Compound 1.0 mg/kg), “−”. The “effect of the dose on exploration time / memory (in words)” value in series [5] (dose 0.05 mg/kg), in series [5] (dose 0.5 mg/kg) and in series [5] (dose 1 mg/kg) was “not effective” throughout. For the same compound, in series [5] (dose 0.1 mg/kg), the “time exploring the object in a new location, % of the total time” value is on record as 63.4±10.4%. Also, in series [5] (dose 0.1 mg/kg), the “time exploring the object in the known position, % of the total time” value amounted to 36.6±10.4%. The “overall effect on memory (in words)” value in series [5] is “stimulated memory”.

For `CN1CCc2c(c3ccccc3n2CCc2noc(-c3ccccc3)n2)C1` [Compound G6-a, 2-Methyl-5-[2-(5-phenyl-1,2,4-oxadiazol-3-yl)ethyl]-2,3,4,5-tetrahydro-1H-pyrido[4,3-b]indole], the melting point is 111 to 112 °C.

Take `COc1ccc2c(c1)c1c(n2CCc2noc(-c3ccccc3)n2)CCN(C)C1` [Compound G6-b, 8-Methoxy-2-methyl-5-[2-(5-phenyl-1,2,4-oxadiazol-3-yl)ethyl]-2,3,4,5-tetrahydro-1H-pyrido[4,3-b]indole]: the melting point was in the range of 77.5 to 79 °C.

`Cc1ccc2c(c1)c1c(n2CCc2noc(-c3ccccc3)n2)CCN(C)C1` [Compound G6-c, 2,8-Dimethyl-5-[2-(5-phenyl-1,2,4-oxadiazol-3-yl)ethyl]-2,3,4,5-tetrahydro-1H-pyrido[4,3-b]-indole]: the melting point fell in the range of 120 to 120.5 °C.

`CN1CCc2c(c3cc(Cl)ccc3n2CCc2noc(-c3ccccc3)n2)C1` [Compound G6-d, 8-Chloro-2-methyl-5-[2-(5-phenyl-1,2,4-oxadiazol-3-yl)ethyl]-2,3,4,5-tetrahydro-1H-pyrido-[4,3-b]indole]: the melting point was in the range of 122 to 123 °C.

`CN1CCc2c(c3cc(F)ccc3n2CCc2noc(-c3ccccc3)n2)C1` [Compound G6-f, 8-Fluoro-2-methyl-5-[2-(5-phenyl-1,2,4-oxadiazol-3-yl)ethyl]-2,3,4,5-tetrahydro-1H-pyrido-[4,3-b]indole] yielded a melting point of 121.5 to 122.5 °C.

The compound `COc1ccc2c(c1)c1c(n2CCc2nc(-c3ccccc3)cs2)CCN(C)C1` [Compound G8-b, 8-Methoxy-2-methyl-5-[2-(4-phenylthiazol-2-yl)ethyl]-2,3,4,5-tetrahydro-1H-pyrido[4,3-b]indole] had a melting point of 135 to 136.5 °C.
